Results on two compounds are retold here after ChEMBL document CHEMBL1137310, “Stereoselective chemoenzymatic synthesis of the four stereoisomers of l-2-(2-carboxycyclobutyl)glycine and pharmacological characterization at human excitatory amino acid transporter subtypes 1, 2, and 3” (J Med Chem, 2006).

The structures appear in SMILES notation.

Format in all cases: functional, cell-based
Experiment [1] deals with T1, Excitatory amino acid transporter 3 (Homo sapiens, UniProt P43005).
T1 sequence (P43005 whole entry): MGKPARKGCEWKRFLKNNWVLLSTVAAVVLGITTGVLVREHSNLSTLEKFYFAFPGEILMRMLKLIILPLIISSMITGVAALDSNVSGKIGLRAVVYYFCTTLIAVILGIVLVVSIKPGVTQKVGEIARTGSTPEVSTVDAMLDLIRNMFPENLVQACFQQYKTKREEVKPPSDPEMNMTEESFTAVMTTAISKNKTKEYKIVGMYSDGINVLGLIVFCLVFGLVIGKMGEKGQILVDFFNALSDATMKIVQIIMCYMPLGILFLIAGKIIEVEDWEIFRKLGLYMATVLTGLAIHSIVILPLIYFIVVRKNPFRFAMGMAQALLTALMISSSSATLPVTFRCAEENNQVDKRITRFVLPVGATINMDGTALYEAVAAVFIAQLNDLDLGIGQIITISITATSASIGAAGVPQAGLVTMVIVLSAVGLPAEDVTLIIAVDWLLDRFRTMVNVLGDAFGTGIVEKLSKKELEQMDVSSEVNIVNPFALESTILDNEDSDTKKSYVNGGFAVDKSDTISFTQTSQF
Kind of experiment: Inhibition of human EAAT3 expressed in HEK293 cells by FLIPR membrane potential assay.

Experiment [2] has as its target Excitatory amino acid transporter 2 (Homo sapiens, UniProt P43004). Kind of experiment: Inhibition of human EAAT2 expressed in HEK293 cells by FLIPR membrane potential assay.
The target in experiment [3] is Excitatory amino acid transporter 1 (Homo sapiens, UniProt P43003). Kind of experiment: Inhibition of human EAAT1 expressed in HEK293 cells by FLIPR membrane potential assay.
Sequence of Excitatory amino acid transporter 1 (P43003 whole entry): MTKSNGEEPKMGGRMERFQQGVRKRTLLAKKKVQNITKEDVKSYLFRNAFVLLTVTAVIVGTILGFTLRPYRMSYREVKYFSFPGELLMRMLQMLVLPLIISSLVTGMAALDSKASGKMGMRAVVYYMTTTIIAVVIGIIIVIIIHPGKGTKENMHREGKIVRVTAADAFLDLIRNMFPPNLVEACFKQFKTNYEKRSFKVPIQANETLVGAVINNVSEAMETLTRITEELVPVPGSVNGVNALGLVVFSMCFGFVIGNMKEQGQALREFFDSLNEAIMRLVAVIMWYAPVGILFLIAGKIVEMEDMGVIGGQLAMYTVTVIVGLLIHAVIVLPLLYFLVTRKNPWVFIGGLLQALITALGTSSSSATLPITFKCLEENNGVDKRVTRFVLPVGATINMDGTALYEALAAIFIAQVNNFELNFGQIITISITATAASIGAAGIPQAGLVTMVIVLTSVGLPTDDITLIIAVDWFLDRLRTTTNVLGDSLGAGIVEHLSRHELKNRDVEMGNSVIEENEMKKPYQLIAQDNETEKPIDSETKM

Sequence of Excitatory amino acid transporter 2 (P43004 whole entry): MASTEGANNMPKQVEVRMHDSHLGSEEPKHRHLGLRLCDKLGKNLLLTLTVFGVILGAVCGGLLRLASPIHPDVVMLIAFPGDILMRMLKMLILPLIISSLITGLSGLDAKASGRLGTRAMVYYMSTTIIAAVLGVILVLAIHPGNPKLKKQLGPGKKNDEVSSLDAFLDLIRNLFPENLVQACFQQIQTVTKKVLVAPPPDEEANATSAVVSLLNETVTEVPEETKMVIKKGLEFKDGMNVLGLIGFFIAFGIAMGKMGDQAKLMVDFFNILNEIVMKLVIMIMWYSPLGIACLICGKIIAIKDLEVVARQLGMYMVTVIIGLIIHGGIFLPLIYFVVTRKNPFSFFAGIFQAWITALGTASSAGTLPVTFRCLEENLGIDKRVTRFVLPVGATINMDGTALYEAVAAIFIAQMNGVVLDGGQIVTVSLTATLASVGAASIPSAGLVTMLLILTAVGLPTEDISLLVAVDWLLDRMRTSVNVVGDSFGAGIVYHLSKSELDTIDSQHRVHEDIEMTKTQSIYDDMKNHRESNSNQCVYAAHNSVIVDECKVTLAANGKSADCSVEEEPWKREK

Consider `N[C@H](C(=O)O)[C@@H]1CC[C@H]1C(=O)O`, for which the results for the Ki in experiment [1] and in experiment [2] were 49 µM and 22 µM, respectively.
As for `N[C@H](C(=O)O)[C@@H]1CC[C@@H]1C(=O)O`, the Ki in experiment [1] worked out at 10 µM; in experiment [3] it was 200 µM; in experiment [2], 6.6 µM.
